Measured values reported in patent US20170233413A1, “SUBSTITUTED ANNULATED PYRIMIDINES AND USE THEREOF” (Bayer Pharma Aktiengesellschaft, priority 2014, published 2017).

Legend:
[1] = biological target: T1, recombinant guanylate cyclase reporter cell line (Rattus norvegicus, UniProt P19686+P20595); test: Effect on a recombinant guanylate cyclase reporter cell line; format: cell-based; conditions: MEC = minimum effective concentration; in some cases means of individual determinations
T1 construct: expressed in transfected cells
T1 sequence (P19686 1-690): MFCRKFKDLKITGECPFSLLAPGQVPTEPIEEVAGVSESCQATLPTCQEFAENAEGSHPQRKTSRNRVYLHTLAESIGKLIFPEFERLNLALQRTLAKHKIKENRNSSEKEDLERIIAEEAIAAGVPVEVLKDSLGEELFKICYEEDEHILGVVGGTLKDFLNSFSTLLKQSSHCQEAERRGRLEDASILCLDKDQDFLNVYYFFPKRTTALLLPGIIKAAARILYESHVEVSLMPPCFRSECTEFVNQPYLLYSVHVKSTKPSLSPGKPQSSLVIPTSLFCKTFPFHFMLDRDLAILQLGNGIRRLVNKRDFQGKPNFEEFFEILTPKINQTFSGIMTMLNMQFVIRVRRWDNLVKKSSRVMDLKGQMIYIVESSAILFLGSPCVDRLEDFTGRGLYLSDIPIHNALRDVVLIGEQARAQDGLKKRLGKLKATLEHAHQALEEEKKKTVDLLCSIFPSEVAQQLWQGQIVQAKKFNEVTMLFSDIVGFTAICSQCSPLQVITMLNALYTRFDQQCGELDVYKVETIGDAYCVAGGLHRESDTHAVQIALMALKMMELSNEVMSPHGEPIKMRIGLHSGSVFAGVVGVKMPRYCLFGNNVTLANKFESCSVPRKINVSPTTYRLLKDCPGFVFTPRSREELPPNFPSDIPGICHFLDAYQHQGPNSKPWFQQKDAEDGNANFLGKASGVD
T1 sequence (P20595 1-619): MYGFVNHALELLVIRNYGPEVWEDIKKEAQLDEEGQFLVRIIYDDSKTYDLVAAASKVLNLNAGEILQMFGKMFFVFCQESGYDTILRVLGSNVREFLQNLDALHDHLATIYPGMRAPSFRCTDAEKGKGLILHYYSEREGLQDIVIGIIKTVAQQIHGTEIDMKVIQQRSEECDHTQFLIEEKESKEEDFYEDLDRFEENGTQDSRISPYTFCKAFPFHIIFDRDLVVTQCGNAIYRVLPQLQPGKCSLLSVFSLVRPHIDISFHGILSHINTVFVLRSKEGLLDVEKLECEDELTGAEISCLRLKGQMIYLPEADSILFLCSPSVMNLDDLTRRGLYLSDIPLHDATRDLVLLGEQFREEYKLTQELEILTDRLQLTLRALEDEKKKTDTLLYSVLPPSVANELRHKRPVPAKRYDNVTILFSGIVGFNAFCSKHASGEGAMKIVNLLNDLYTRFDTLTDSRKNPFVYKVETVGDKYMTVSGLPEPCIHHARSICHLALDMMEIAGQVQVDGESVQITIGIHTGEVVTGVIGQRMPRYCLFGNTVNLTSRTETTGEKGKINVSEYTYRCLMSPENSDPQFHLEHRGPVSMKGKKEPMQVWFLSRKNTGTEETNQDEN
Procedure: B-2. Effect on a Recombinant Guanylate Cyclase Reporter Cell Line
The cellular activity of the compounds of the invention is determined using a recombinant guanylate cyclase reporter cell line, as described in F. Wunder et al., Anal. Biochem. 2005, 339, 104-112. Representative values (MEC=minimum effective concentration) for the compounds of the invention are shown in the table below (Table 1B; in some cases as means of individual determinations): […]

[2] = biological target: T2, human phosphodiesterase 5 (PDE 5) (Homo sapiens, UniProt O76074); test: Inhibition of human phosphodiesterase 5 (PDE 5); format: biochemical; conditions: PDE 5 preparation from human platelets; in some cases means of individual determinations
T2 construct: PDE 5 preparations are obtained from human platelets by disruption; from tissue; host or cells: human platelets
Procedure: B-3. Inhibition of Human Phosphodiesterase 5 (PDE 5)
PDE 5 preparations are obtained from human platelets by disruption (Microfluidizer®, 800 bar, 3 passes), followed by centrifugation (75 000 g, 60 min, 4° C.) and ion exchange chromatography of the supernatant on a Mono Q 10/10 column (linear sodium chloride gradient, elution with a 0.2-0.3M solution of sodium chloride in buffer (20 mM Hepes pH 7.2, 2 mM magnesium chloride). Fractions having PDE 5 activity are combined (PDE 5 preparation) and stored at −80° C.
To determine their in vitro action on human PDE 5, the test substances are dissolved in 100% DMSO and serially diluted. Typically, dilution series (1:3) from 200 μM to 0.091 μM are prepared (resulting final concentrations in the test: 4 μM to 0.0018 μM). In each case 2 μl of the diluted substance solutions are placed into the wells of microtitre plates (Isoplate-96/200W; Perkin Elmer). Subsequently, 50 μl of a dilution of the above-described PDE 5 preparation are added. The dilution of the PDE 5 preparation is chosen such that during the later incubation less than 70% of the substrate are converted (typical dilution: 1:100; dilution buffer: 50 mM tris/hydrochloric acid pH 7.5, 8.3 mM magnesium chloride, 1.7 mM EDTA, 0.2% BSA). The substrate, [8-^3H] cyclic guanosine-3′,5′-monophosphate (1 μCi/μl; Perkin Elmer), is diluted 1:2000 with assay buffer (50 mM tris/hydrochloric acid pH 7.5, 8.3 mM magnesium chloride, 1.7 mM EDTA) to a concentration of 0.0005 μCi/μl. By addition of 50 μl (0.025 μCi) of the diluted substrate, the enzyme reaction is finally started. The test mixtures are incubated at room temperature for 60 min and the reaction is stopped by adding 25 μl of a suspension of 18 mg/ml yttrium scintillation proximity beads in water (phosphodiesterase beads for SPA assays, RPNQ 0150, Perkin Elmer). The microtitre plates are sealed with a film and left to stand at room temperature for 60 min. Subsequently, the plates are analysed for 30 s per well in a Microbeta scintillation counter (Perkin Elmer). IC50 values are determined using the graphic plot of the substance concentration against percentage PDE 5 inhibition.

| MEC [1] [µM] | IC50 [2] [nM] | SMILES |
| --- | --- | --- |
| 0.3 | 35 | CC1(C)C(=O)Nc2nc(-c3nn(Cc4ccccc4F)c4ncccc34)nc(C(=O)NCC3CCCC3)c21 [Example 92, N-(cyclopentylmethyl)-2-[1-(2-fluorobenzyl)-1H-pyrazolo[3,4-b]pyridin-3-yl]-5,5-dimethyl-6-oxo-6,7-dihydro-5H-pyrrolo[2,3-d]pyrimidine-4-carboxamide] |
| 1 | 60 | CC1(C)C(=O)Nc2nc(-c3nn(Cc4ccccc4F)c4ncccc34)nc(C(=O)Nc3cc(F)cc(F)c3)c21 [Example 76, N-(3,5-difluorophenyl)-2-[1-(2-fluorobenzyl)-1H-pyrazolo[3,4-b]pyridin-3-yl]-5,5-dimethyl-6-oxo-6,7-dihydro-5H-pyrrolo[2,3-d]pyrimidine-4-carboxamide] |
| 0.3 | 170 | Cc1nnc(NC(=O)c2nc(-c3nn(Cc4ccccc4F)c4ncccc34)nc3c2C(C)(C)C(=O)N3)o1 [Example 71, 2-[1-(2-fluorobenzyl)-1H-pyrazolo[3,4-b]pyridin-3-yl]-5,5-dimethyl-N-(5-methyl-1,3,4-oxadiazol-2-yl)-6-oxo-6,7-dihydro-5H-pyrrolo[2,3-d]pyrimidine-4-carboxamide] |
| 0.1 | 44 | CNC(=O)c1nc(-c2nn(Cc3ccccc3F)c3ncccc23)nc2c1C(C)(C)C(=O)N2 [Example 86, 2-[1-(2-fluorobenzyl)-1H-pyrazolo[3,4-b]pyridin-3-yl]-N,5,5-trimethyl-6-oxo-6,7-dihydro-5H-pyrrolo[2,3-d]pyrimidine-4-carboxamide] |
| 0.03 | 240 | Cc1nc2c(cc1F)c(-c1nc3c(c(C(=O)N(C)CCO)n1)C(C)(C)C(=O)N3)nn2Cc1cccc(F)c1F [Example 40] |
| 1 | 190 | Cc1nc2c(cc1F)c(-c1nc3c(c(C(N)=O)n1)C(C)(C(F)(F)F)C(=O)N3)nn2Cc1ncccc1F (single isomer, unassigned; ent-2) [Example 20, ent-2-{5-Fluoro-1-[(3-fluoropyridin-2-yl)methyl]-6-methyl-1H-pyrazolo[3,4-b]pyridin-3-yl}-5-methyl-6-oxo-5-(trifluoromethyl)-6,7-dihydro-5H-pyrrolo[2,3-d]pyrimidine-4-carboxamide (enantiomer B)] |
| 0.3 | 2.6 | Cn1nccc1NC(=O)c1nc(-c2nn(Cc3ccccc3F)c3ncccc23)nc2c1C(C)(C)C(=O)N2 [Example 67, 2-[1-(2-fluorobenzyl)-1H-pyrazolo[3,4-b]pyridin-3-yl]-5,5-dimethyl-N-(1-methyl-1H-pyrazol-5-yl)-6-oxo-6,7-dihydro-5H-pyrrolo[2,3-d]pyrimidine-4-carboxamide] |
| 0.3 | 8.2 | CC1(NC(=O)c2nc(-c3nn(Cc4ccccc4F)c4ncccc34)nc3c2C(C)(C)C(=O)N3)CCC1 [Example 97, 2-[1-(2-fluorobenzyl)-1H-pyrazolo[3,4-b]pyridin-3-yl]-5,5-dimethyl-N-(1-methylcyclobutyl)-6-oxo-6,7-dihydro-5H-pyrrolo[2,3-d]pyrimidine-4-carboxamide] |
| 0.3 | 68 | Cc1ccc(NC(=O)c2nc(-c3nn(Cc4ccccc4F)c4ncccc34)nc3c2C(C)(C)C(=O)N3)cn1 [Example 91, 2-[1-(2-fluorobenzyl)-1H-pyrazolo[3,4-b]pyridin-3-yl]-5,5-dimethyl-N-(6-methylpyridin-3-yl)-6-oxo-6,7-dihydro-5H-pyrrolo[2,3-d]pyrimidine-4-carboxamide] |
| 0.1 | 87 | CC1(C)C(=O)Nc2nc(-c3nn(Cc4ccccc4F)c4ncc(F)cc34)nc(C(=O)NCCC(F)(F)F)c21 [Example 51] |
| 1 | 91 | CCC(CC)CNC(=O)c1nc(-c2nn(Cc3ccccc3F)c3ncccc23)nc2c1C(C)(C)C(=O)N2 [Example 59, N-(2-Ethylbutyl)-2-[1-(2-fluorobenzyl)-1H-pyrazolo[3,4-b]pyridin-3-yl]-5,5-dimethyl-6-oxo-6,7-dihydro-5H-pyrrolo[2,3-d]pyrimidine-4-carboxamide] |
| 1 | 42 | CC1(C)C(=O)Nc2nc(-c3nn(Cc4ccccc4F)c4ncccc34)nc(C(=O)NCC(N)CC(F)(F)F)c21 (racemic) [Example 136, rac-N-(2-amino-4,4,4-trifluorobutyl)-2-[1-(2-fluorobenzyl)-1H-pyrazolo[3,4-b]pyridin-3-yl]-5,5-dimethyl-6-oxo-6,7-dihydro-5H-pyrrolo[2,3-d]pyrimidine-4-carboxamide] |
| 0.3 | 28 | CC1(C)C(=O)Nc2nc(-c3nn(Cc4ccccc4F)c4ncccc34)nc(C(=O)NCC3CCCO3)c21 (racemic) [Example 130, rac-2-[1-(2-fluorobenzyl)-1H-pyrazolo[3,4-b]pyridin-3-yl]-5,5-dimethyl-6-oxo-N-(tetrahydrofuran-2-ylmethyl)-6,7-dihydro-5H-pyrrolo[2,3-d]pyrimidine-4-carboxamide] |
| 0.03 | 730 | CN(CC1CC1)C(=O)c1nc(-c2nn(Cc3ccccc3F)c3cc(Cl)ccc23)nc2c1C(C)(C)C(=O)N2 [Example 47] |
| 0.01 | 110 | CN(CC1CC1)C(=O)c1nc(-c2nn(Cc3ccccc3F)c3ncc(F)cc23)nc2c1C(C)(C)C(=O)N2 [Example 53] |
| 0.1 | 44 | Cc1cccnc1NC(=O)c1nc(-c2nn(Cc3ccccc3F)c3ncccc23)nc2c1C(C)(C)C(=O)N2 [Example 113, 2-[1-(2-fluorobenzyl)-1H-pyrazolo[3,4-b]pyridin-3-yl]-5,5-dimethyl-N-(3-methylpyridin-2-yl)-6-oxo-6,7-dihydro-5H-pyrrolo[2,3-d]pyrimidine-4-carboxamide] |
| 0.1 | 51 | CC1(C)C(=O)Nc2nc(-c3nn(Cc4ccccc4F)c4ncc(F)cc34)nc(C(=O)NCC3(O)CC3)c21 [Example 27, 2-[5-Fluoro-1-(2-fluorobenzyl)-1H-pyrazolo[3,4-b]pyridin-3-yl]-N-[(1-hydroxycyclopropyl)methyl]-5,5-dimethyl-6-oxo-6,7-dihydro-5H-pyrrolo[2,3-d]pyrimidine-4-carboxamide] |
